Reference: ChEMBL document CHEMBL4725268, “Anticonvulsant and analgesic in neuropathic pain activity in a group of new aminoalkanol derivatives” (Bioorg Med Chem Lett, 2020)
Active and inactive are the calls of the source.

Columns and labels:
[1] = Toxicity in mouse assessed as lethality at 30 mg/kg, ip; type: organism-based; conditions: in vivo
Mus musculus [2] = assay: Anticonvulsant activity in ip dosed albino mouse assessed as protection against 50 mA current-induced seizure by maximal electroshock seizure test; type: functional
[3] = Antioxidant activity assessed as DPPH radical scavenging activity at 125 to 1000 uM by microplate method; type: functional; conditions: dose microM 125-1000
Mus musculus [4] = assay: Anticonvulsant activity in ip dosed mouse assessed as protection against current-induced seizure by maximal electroshock seizure test; type: functional
[5] = Toxicity in mouse assessed as lethality at 50 mg/kg, ip; type: organism-based; conditions: in vivo
[6] = Toxicity in ip dosed mouse assessed as motor impairment by rotarod test; type: organism-based; conditions: in vivo
[7] = Protection index, ratio of TD50 for toxicity in ip dosed mouse to ED50 for anticonvulsant activity in ip dosed mouse; type: organism-based; conditions: in vivo, read-out: PI
Mus musculus [8] = assay: Antiallodynic activity in mouse model of OXA-induced peripheral neuropathy assessed as mean latency time to nocifensive response at 18 mg/kg, ip administered after 3 hrs of OXA stimulation and measured after 1 hr by cold plate method (reference value: 59.76 +/- 0.16 sec); type: functional
Mus musculus [9] = assay: Antiallodynic activity in mouse model of OXA-induced peripheral neuropathy assessed as mean paw withdrawal threshold at 18 mg/kg, ip administered after 3 hrs of OXA stimulation and measured after 1 hr by Von-frey method (reference value: 3.144 +/- 0.169 g); type: functional
Mus musculus [10] = assay: Antiallodynic activity in mouse model of OXA-induced peripheral neuropathy assessed as mean latency time to nocifensive response at 18 mg/kg, ip administered after 7 days of OXA stimulation and measured after 1 hr by cold plate method (reference value: 57.64 +/- 1.267 sec); type: functional
Mus musculus [11] = assay: Antiallodynic activity in mouse model of OXA-induced peripheral neuropathy assessed as mean paw withdrawal threshold at 18 mg/kg, ip administered after 7 days of OXA stimulation and measured after 1 hr by Von-frey method (reference value: 3.192 +/- 0.181 g); type: functional
[12] = molecular target: T1, 5-hydroxytryptamine receptor 1A (Homo sapiens, UniProt P08908); assay: Binding affinity to 5-HT1A (unknown origin)
T1 sequence (P08908 whole entry): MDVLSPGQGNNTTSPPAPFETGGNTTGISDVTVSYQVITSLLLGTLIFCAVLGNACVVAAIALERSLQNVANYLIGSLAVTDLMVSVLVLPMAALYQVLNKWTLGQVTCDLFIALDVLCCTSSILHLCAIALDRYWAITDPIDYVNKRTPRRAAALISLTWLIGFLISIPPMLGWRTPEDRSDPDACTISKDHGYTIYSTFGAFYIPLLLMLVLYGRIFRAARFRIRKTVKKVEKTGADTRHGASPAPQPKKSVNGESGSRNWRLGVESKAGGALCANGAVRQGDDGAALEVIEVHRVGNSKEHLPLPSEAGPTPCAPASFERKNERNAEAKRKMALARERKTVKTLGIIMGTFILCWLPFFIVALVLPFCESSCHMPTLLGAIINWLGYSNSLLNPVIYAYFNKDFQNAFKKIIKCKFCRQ

[13] = Drug metabolism in mouse microsome assessed as formation of monohydroxylated metabolite; type: ADME; conditions: microsomes
[14] = Genotoxicity in Salmonella typhimurium TA100 assessed as number of revertant at 10 ug by AMES test (reference value: 64.3 to 130.7); type: toxicity, Salmonella enterica subsp. enterica serovar Typhimurium; conditions: in vivo; dose 10 µg
[15] = Genotoxicity in Salmonella typhimurium TA100 assessed as number of revertant at 75 ug by AMES test (reference value: 64.3 to 130.7); type: toxicity, Salmonella enterica subsp. enterica serovar Typhimurium; conditions: in vivo; dose 75 µg
[16] = Genotoxicity in Salmonella typhimurium TA100 assessed as number of revertant at 200 ug by AMES test (reference value: 64.3 to 130.7); type: toxicity, Salmonella enterica subsp. enterica serovar Typhimurium; conditions: in vivo; dose 200 µg
[17] = Genotoxicity in Salmonella typhimurium TA100 assessed as number of revertant at 750 ug by AMES test (reference value: 64.3 to 130.7); type: toxicity, Salmonella enterica subsp. enterica serovar Typhimurium; conditions: in vivo; dose 750 µg
[18] = Genotoxicity in Salmonella typhimurium TA100 assessed as mutagenic index at 10 ug by AMES test; type: toxicity, Salmonella enterica subsp. enterica serovar Typhimurium; conditions: in vivo; dose 10 µg
[19] = Genotoxicity in Salmonella typhimurium TA100 assessed as mutagenic index at 75 ug by AMES test; type: toxicity, Salmonella enterica subsp. enterica serovar Typhimurium; conditions: in vivo; dose 75 µg
[20] = Genotoxicity in Salmonella typhimurium TA100 assessed as mutagenic index at 200 ug by AMES test; type: toxicity, Salmonella enterica subsp. enterica serovar Typhimurium; conditions: in vivo; dose 200 µg
[21] = Genotoxicity in Salmonella typhimurium TA100 assessed as mutagenic index at 750 ug by AMES test; type: toxicity, Salmonella enterica subsp. enterica serovar Typhimurium; conditions: in vivo; dose 750 µg
[22] = Genotoxicity in Salmonella typhimurium TA98 assessed as number of revertant at 10 ug by AMES test (reference value: 8 to 8.3); type: toxicity, Salmonella enterica subsp. enterica serovar Typhimurium; conditions: in vivo; dose 10 µg
[23] = Genotoxicity in Salmonella typhimurium TA98 assessed as number of revertant at 75 ug by AMES test (reference value: 8 to 8.3); type: toxicity, Salmonella enterica subsp. enterica serovar Typhimurium; conditions: in vivo; dose 75 µg
[24] = Genotoxicity in Salmonella typhimurium TA98 assessed as number of revertant at 200 ug by AMES test (reference value: 8 to 8.3); type: toxicity, Salmonella enterica subsp. enterica serovar Typhimurium; conditions: in vivo; dose 200 µg
[25] = Genotoxicity in Salmonella typhimurium TA98 assessed as number of revertant at 500 ug by AMES test (reference value: 8 to 8.3); type: toxicity, Salmonella enterica subsp. enterica serovar Typhimurium; conditions: in vivo; dose 500 µg
[26] = Genotoxicity in Salmonella typhimurium TA98 assessed as mutagenic index at 10 ug by AMES test; type: toxicity, Salmonella enterica subsp. enterica serovar Typhimurium; conditions: in vivo; dose 10 µg
[27] = Genotoxicity in Salmonella typhimurium TA98 assessed as mutagenic index at 75 ug by AMES test; type: toxicity, Salmonella enterica subsp. enterica serovar Typhimurium; conditions: in vivo; dose 75 µg
[28] = Genotoxicity in Salmonella typhimurium TA98 assessed as mutagenic index at 200 ug by AMES test; type: toxicity, Salmonella enterica subsp. enterica serovar Typhimurium; conditions: in vivo; dose 200 µg
[29] = Genotoxicity in Salmonella typhimurium TA98 assessed as mutagenic index at 500 ug by AMES test; type: toxicity, Salmonella enterica subsp. enterica serovar Typhimurium; conditions: in vivo; dose 500 µg
in vitro [30] = conditions: mouse, microsomes
Description: Metabolic stability in mouse microsome assessed as half life

in vitro [31] = conditions: mouse, microsomes; remark: listed apart in the source
Description: Metabolic stability in mouse microsome assessed as intrinsic clearance

[32] = molecular target: T2, 5-hydroxytryptamine receptor 1A (Homo sapiens) (UniProt P08908); assay: Binding affinity to 5-HT1A (unknown origin) at 10^-5 M; conditions: dose 1.0 10^-5M
T2 sequence (whole entry): T1 sequence (P08908 whole entry)

[33] = Genotoxicity in Salmonella typhimurium TA100 assessed as number of revertant at 500 ug by AMES test (reference value: 64.3 to 130.7); type: toxicity, Salmonella enterica subsp. enterica serovar Typhimurium; conditions: in vivo; dose 500 µg
[34] = Genotoxicity in Salmonella typhimurium TA100 assessed as mutagenic index at 500 ug by AMES test; type: toxicity, Salmonella enterica subsp. enterica serovar Typhimurium; conditions: in vivo; dose 500 µg
[35] = Genotoxicity in Salmonella typhimurium TA98 assessed as number of revertant at 750 ug by AMES test (reference value: 8 to 8.3); type: toxicity, Salmonella enterica subsp. enterica serovar Typhimurium; conditions: in vivo; dose 750 µg
[36] = Genotoxicity in Salmonella typhimurium TA98 assessed as mutagenic index at 750 ug by AMES test; type: toxicity, Salmonella enterica subsp. enterica serovar Typhimurium; conditions: in vivo; dose 750 µg

Row | Structure (SMILES) | ED50 (Mus musculus [2]) [mg/kg] | ED50 (Mus musculus [4]) [mg/kg] | TD50 [6] [mg/kg] | selectivity ratio [7] | Drug metabolism [13] | Activity [14] | Activity [15] | Activity [16] | Activity_index [18] | Activity_index [19] | Activity_index [20] | Activity [22] | Activity [23] | Activity [24] | Activity [25] | Activity_index [26] | Activity_index [27] | Activity_index [28] | Activity_index [29] | half-life (in vitro [30]) [h] | also measured
1 | Cc1cc(C)c(OCCCN[C@H]2CC[C@H](O)CC2)c(C)c1 | – | – | – | – | – | – | – | – | – | – | – | – | – | – | – | – | – | – | – | – | Activity [1]: Toxic
2 | CC(C)NC[C@@H](O)COc1cccc2ccccc12 [DEXPROPRANOLOL] | 16 | – | – | – | – | – | – | – | – | – | – | – | – | – | – | – | – | – | – | – | –
3 | Cc1cc(C)c(C)c(OCCOCCN[C@H]2CCCC[C@@H]2O)c1.Cl (racemic) | – | 18.2 | 54.2 | 2.91 | Metabolite_Detected | 86 | 80.7 | 70.5 | 1.2 | 1.1 | 1 | 7 | 8 | 11 | 9 | 0.9 | 1 | 1.4 | 1.1 | 0.62 | Activity [3]: inactive; Activity [5]: Non-Toxic; Time (Mus musculus [8]): 20.92 s; Activity (Mus musculus [9]): 2.09 g; Time (Mus musculus [10]): 8.86 s; Activity (Mus musculus [11]): 1.907 g; Ki [12]: 1200 nM; Activity [17]: 56; Activity_index [21]: 0.4; microsomal CLint (in vitro [31]): 93 µL/min/mg
4 | Cc1cccc(C)c1OCCOCCNC1CCC(O)CC1.Cl (configuration not stated) | – | 33 | 132 | 3.99 | Metabolite_Detected | 226.7 | 312.3 | 55 | 3.1 | 4.3 | 0.8 | 8 | 8.3 | 9.3 | 6.7 | 1 | 1 | 1.2 | 0.8 | 1.46 | Activity [32]: inactive; Activity [33]: 274.3; Activity_index [34]: 3.8; Activity [35]: 3; Activity_index [36]: 0.4; microsomal CLint (in vitro [31]): 19.8 µL/min/mg
5 | CC(C)NCC(O)COc1cccc2ccccc12 (racemic) [PROPRANOLOL] | 1.2 | – | – | – | – | – | – | – | – | – | – | – | – | – | – | – | – | – | – | – | –
